Where two headings read alike, the source gives them in different places.
Tests used:
[1] = test system: mouse carotid artery injury model; test: mouse carotid artery injury model, neointimal area; assay type: in vivo; conditions: female B6.129 mice, high fat diet, oral 50 mg/kg resveratrol, 10 mg/kg quercetin or both, 2 weeks before and 2 weeks after injury
Experimental: FIG. 9 is a bar chart showing the effects of oral administration with 50 mg/kg resveratrol (RESV), 10 mg/kg quercetin (QUER), or resveratrol plus quercetin on neointimal areas in mice subjected to the carotid artery injury procedure. Values represent means+SEM. […] Neointimal area was determined by subtracting the luminal area from the area encircled by the internal elastic lamina. Determining whether quercetin potentiates the vascular protective effects of resveratrol in vivo, utilizing a mouse carotid artery injury model. Female B6.129 mice were administered a high fat diet, in some cases mixed together with 50 mg/kg resveratrol (RESV), 10 mg/kg quercetin (QUER), or resveratrol plus quercetin, for 2 weeks. The carotid artery injury procedure was conducted and the animals were fed the high fat diet plus polyphenols for an additional two weeks. The animals were then sacrificed, and the carotid arteries were excised and assessed for neointimal areas.

platelets = test: platelet activation, tritiated serotonin release after ADP; assay type: cell-based, human; conditions: 3 h, 5 μM ADP
Experimental: Values represent means+/−standard error.
To determine the efficacy of these compounds in reducing platelet activation, platelets isolated from healthy, male donors were incubated with resveratrol, quercetin, or resveratrol plus quercetin. The doses were selected based on prior studies.

platelet activation = test: thromboxane B2 levels in mouse carotid artery injury model; assay type: in vivo; conditions: 4 weeks oral, 50 mg/kg resveratrol, 10 mg/kg quercetin or both, B6.129 mice
Experimental: Plasma levels of thromboxane B2 (TBX2), a known marker for platelet activation, were assessed.

macrophages [2] = test: LPS-stimulated macrophage activation, iNOS protein; assay type: cell-based
Experimental: To test the efficacy of a resveratrol/quercetin combination in inhibiting the activation of macrophages, effects of polyphenol treatments either alone or in combination with quercetin were assessed in cultures of lipopolysaccharide (LPS) stimulated macrophages. Macrophage activation was determined by increases in protein levels of inducible nitric oxide synthase (iNOS) and by levels of reactive oxygen species (ROS).

macrophages [3] = test: LPS-stimulated macrophage activation, nitric oxide release, isobologram; assay type: cell-based; conditions: CalcuSyn, read-out: IC50 macrophage activation, individual treatments
Experimental: Macrophages were incubated with differing dose ratios of resveratrol:quercetin and were stimulated with LPS. Activation was assessed as increases in nitric oxide release. The IC50's for each dose ratio were calculated using CaluSyn software and were used to plot the isobologram. The line depicted above indicates the point at which additive responses are observed (C1=1). Points lying above the line indicate antagonism, whereas points below the line represent synergism.
Isobolograms for the determination of synergistic dose ratios for a resveratrol/quercetin combination. To determine the dose ratios for achieving maximal synergistic effects, activation in LPS-stimulated cells macrophages incubated with constant dose ratios of resveratrol and quercetin was measured. The IC50 for each dose ratio was calculated using CalcuSyn software, and these concentrations were used to construct an isobologram (FIG. 13). […] Briefly, CI=1 denotes additive effects, CI>1 denotes antagonism, and CI<1 indicates synergism.

VSMC [4] = test: BrdU proliferation assay of VSMC with drug-eluting flats; assay type: cell-based; conditions: 48 hours elution
Experimental: Bare metal flats coated with resveratrol—(FIG. 17A) or quercetin—(FIG. 17B) containing arbIBS of either a closed or an open morphology were incubated in semi-permeable transwell inserts in plates containing VSMC. The bromodeoxyuridine (BrdU) incorporation assay for cell proliferation was conducted after 48 h of drug elution. […] The polyisobutylene-polystyrene triblock copolymers coated flats containing resveratrol or quercetin were incubated in semi-permeable transwell inserts in plates containing VSMC.

[5] = cited from earlier work
VSMC [6] = test: VSMC proliferation (DNA synthesis, cell number); assay type: cell-based; conditions: Rattus norvegicus
[7] = resveratrol release from polymer-coated flats (HPLC); assay type: physicochemical
Experimental: Polymer coated flats were incubated in medium at 37° C. for 28 d. Resveratrol concentration in the medium was assessed at 2 d intervals using high performance liquid chromatography. The data are expressed as means+/−standard error for cumulative release in micromolar concentrations (FIG. 18A) compared to a percent of total drug loaded (FIG. 18B).
Determination of resveratrol release was performed using reversed phase high performance liquid chromatography (HPLC) coupled to a 4-channel Coularray electrochemical detector run at 590, 660, 730, and 800 mV. […] Establishing biocompatibility is a critical step in the development of the stent models.

NFκB = NFκB activation in vascular smooth muscle cells; assay type: cell-based
Excerpt: FIG. 3 is a bar chart showing the effect of resveratrol on NFκB activation in vascular smooth muscle cells

ER-alpha = target: T1, ER-alpha (Homo sapiens, UniProt P03372); conditions: same binding site as estradiol; cited from earlier work
T1 sequence (P03372 1-595): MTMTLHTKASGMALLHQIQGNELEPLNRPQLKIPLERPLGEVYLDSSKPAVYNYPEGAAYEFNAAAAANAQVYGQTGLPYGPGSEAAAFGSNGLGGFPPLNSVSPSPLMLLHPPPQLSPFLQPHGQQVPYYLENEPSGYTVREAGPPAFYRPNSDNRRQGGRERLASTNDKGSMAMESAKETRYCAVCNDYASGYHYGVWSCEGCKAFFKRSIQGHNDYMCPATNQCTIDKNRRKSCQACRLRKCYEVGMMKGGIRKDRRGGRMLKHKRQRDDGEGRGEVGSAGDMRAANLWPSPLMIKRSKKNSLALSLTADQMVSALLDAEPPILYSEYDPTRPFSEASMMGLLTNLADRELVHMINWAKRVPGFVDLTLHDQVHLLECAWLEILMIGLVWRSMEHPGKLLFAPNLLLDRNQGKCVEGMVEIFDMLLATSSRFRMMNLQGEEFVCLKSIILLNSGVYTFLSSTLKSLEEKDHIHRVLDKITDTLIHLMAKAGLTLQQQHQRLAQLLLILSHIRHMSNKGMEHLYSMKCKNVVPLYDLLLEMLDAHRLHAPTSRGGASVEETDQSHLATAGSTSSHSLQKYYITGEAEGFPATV

IC50 (macrophages [3]) [µM] | total drug loaded that had eluted ([7]; at 28 days) | eluted concentration of resveratrol ([7]; medium 37° C., 28 d) | release from 100 mg/cm^2 coated flat relative to 50 mg/cm^2-coated flat ([7]; regardless of morphology, medium 37° C.) | SMILES | neointimal area [1] | reduction of serotonin release (platelets; 10-15 μM quercetin) | reduction of plasma TXB2 levels (platelet activation) | reduction of iNOS protein (macrophages [2]; 10 μM quercetin) [%] | reduction of iNOS protein (macrophages [2]; 15 μM quercetin) [%] | inhibition of VSMC proliferation (VSMC [4]; 75 μg/cm^2, particulate (open) or smooth (closed) matrix) | solubility in water [5] | EC50 (VSMC [6]; read-out: EC50 for inhibiting DNA synthesis) [µM] | EC50 (VSMC [6]; read-out: EC50 for reducing numbers of cells) [µM] | reduction of serotonin release (platelets; 18 μM resveratrol) [%] | reduction of iNOS protein levels (macrophages [2]; 18 μM resveratrol) [%] | inhibition of VSMC proliferation (VSMC [4]; smooth (closed) matrix, 100 μg/cm^2 loading) | inhibition of NFκB activation (NFκB) | binding affinity (ER-alpha)
2.4 |  |  |  | O=c1c(O)c(-c2ccc(O)c(O)c2)oc2cc(O)cc(O)c12 [quercetin, 2-(3,4-dihydroxyphenyl)-3,5,7-trihydroxy-4H-1-benzopyran-4-one] | no significant effect | 40-50% | 40% | ~75 | ~90 | significantly inhibited proliferation | practically insoluble |  |  |  |  |  |  | 
3.5 | 5-10% | low micromolar concentrations | approximately 4 fold | Oc1ccc(C=Cc2cc(O)cc(O)c2)cc1 [resveratrol] | dramatically reduced |  | no significant effect |  |  |  |  | 18 | 25 | ~60 | ~25 | significantly inhibited proliferation | very potently | lower binding affinity than estradiol

— patent US8992603B2, “Coated devices and method of making coated devices that reduce smooth muscle cell proliferation and platelet activity” (Nanocopoeia, Inc., priority 2007, dated 2015)
